From the Deep4Chem optical property database
Values belong to the compound of their own block, whether it stands above or below them.

Assay: photoluminescence quantum yield (fraction); solvent given as SMILES
[1] = in O=P(c1ccccc1)(c1ccccc1)c1ccccc1Oc1ccccc1P(=O)(c1ccccc1)c1ccccc1

Compound: CCCCCCc1ccc2c3c(ccc2c1)O[B-](F)(F)[N+](c1ccc([N+]2=Cc4c(ccc5cc(CCCCCC)ccc45)O[B-]2(F)F)cc1)=C3
- photoluminescence quantum yield (in C1CCOC1): 0.35
- photoluminescence quantum yield (in CC#N): 0.3
- photoluminescence quantum yield (in Cc1ccccc1): 0.43
- photoluminescence quantum yield (in ClCCl): 0.44

Compound: CC1(C)c2ccccc2N(c2cc[n+]3c(c2)-c2ccccc2O[B-]3(F)F)c2ccccc21
- photoluminescence quantum yield [1]: 0.65

Compound: Cc1cc(C)c(B(c2ccc(N(c3ccccc3)c3ccccc3)cc2)c2c(C)cc(C)cc2C)c(C)c1
- photoluminescence quantum yield (in Cc1ccccc1): 0.91

Compound: CCC1=C(C)C2=Cc3c4ccccc4c4n3[B-](c3ccncc3)(Oc3ccccc3-4)[N+]2=C1C=Cc1ccc(OC)cc1 (stereo not given)
- photoluminescence quantum yield (in CC#N): 0.37
- photoluminescence quantum yield (in CCCCCC): 0.36
- photoluminescence quantum yield (in Cc1ccccc1): 0.35
- photoluminescence quantum yield (in ClCCl): 0.35

Compound: CC1=C(c2ccccc2)C(C)=[N+]2C1=C(c1ccccc1)c1c(C)c(-c3ccccc3)c(C)n1[B-]2(F)F
- photoluminescence quantum yield (in Cc1ccccc1): 0.325

Compound: Nc1nc2ccccc2[n+]([O-])n1
- photoluminescence quantum yield (in CC#N): 0.169
- photoluminescence quantum yield (in O): 0.0367

Compound: CCCCCCCCCCCCOc1cc2c3c(ccc4c5c(N6CCOCC6)cc6c7c(ccc(c1c34)c75)C(=O)N(C1CCCCC1)C6=O)C(=O)N(C1CCCCC1)C2=O
- photoluminescence quantum yield (in ClC(Cl)Cl): 0.067

Compound: CCOC(=O)C(C(=O)OCC)C1=[N+]2C(=C(c3ccc(C)cc3)c3ccc(Cl)n3[B-]2(F)F)C=C1
- photoluminescence quantum yield (in C1CCCCC1): 0.46
- photoluminescence quantum yield (in C1CCOC1): 0.48
- photoluminescence quantum yield (in CCOC(C)=O): 0.4
- photoluminescence quantum yield (in CO): 0.28
- photoluminescence quantum yield (in Cc1ccccc1): 0.79
- photoluminescence quantum yield (in ClC(Cl)Cl): 0.52

Compound: F[B-]1(F)n2c(c3cccc4cccc2c43)=Nc2cccc[n+]21
- photoluminescence quantum yield (in C1CCOC1): 0.99
- photoluminescence quantum yield (in CC#N): 0.99
- photoluminescence quantum yield (in CCCCCC): 0.99
- photoluminescence quantum yield (in Cc1ccccc1): 0.99
- photoluminescence quantum yield (in ClCCl): 0.99

Compound: CN(C)c1ccc2cc(C3=[O+][B-](F)(F)OC(c4ccc(C#N)cc4)=C3)ccc2c1
- photoluminescence quantum yield (in C1CCOC1): 0.56
- photoluminescence quantum yield (in CC#N): 0.007
- photoluminescence quantum yield (in CC(C)=O): 0.18
- photoluminescence quantum yield (in CS(C)=O): 0.007
- photoluminescence quantum yield (in Cc1ccccc1): 0.62
- photoluminescence quantum yield (in ClC(Cl)Cl): 0.94
- photoluminescence quantum yield (in ClCCl): 0.87

Compound: C(#Cc1ncc(-c2ccccc2)o1)c1cccnc1
- photoluminescence quantum yield (in ClCCl): 0.13

Compound: c1ccc(-c2nc(-c3ccccc3)nc(-c3ccc(-n4c5ccccc5c5cc(-n6c7ccccc7c7ccccc76)ccc54)cc3)n2)cc1
- photoluminescence quantum yield (in Cc1ccccc1): 0.72

Compound: CCOC(=O)CSc1nc(-c2ccccc2)c(C)c(C#N)c1C#N
- photoluminescence quantum yield (in C1COCCO1): 0.031
- photoluminescence quantum yield (in CC#N): 0.036
- photoluminescence quantum yield (in CCO): 0.037
- photoluminescence quantum yield (in CCOC(C)=O): 0.037
- photoluminescence quantum yield (in ClC(Cl)Cl): 0.033
- photoluminescence quantum yield (in c1ccccc1): 0.038

Compound: CC(C)(C)c1ccc2c(c1)c1cc(C(C)(C)C)ccc1n2-c1cc(-n2c3ccc(C(C)(C)C)cc3c3cc(C(C)(C)C)ccc32)c(-n2c3ccc(C(C)(C)C)cc3c3cc(C(C)(C)C)ccc32)c(C#N)c1-n1c2ccc(C(C)(C)C)cc2c2cc(C(C)(C)C)ccc21
- photoluminescence quantum yield (in Cc1ccccc1): 0.68

Compound: COC(=O)/C(C#N)=c1\s/c(=c2/s/c(=C(/C#N)C(=O)OC)c3cc(-c4ccccc4)sc23)c2sc(-c3ccccc3)cc12
- photoluminescence quantum yield (in Cc1ccccc1): 0.366

Compound: FC(F)(F)C(F)(F)C(F)(F)C1=NC2=C(c3ccccc3)C=C3c4cc(-c5ccccc5)c5nc(C(F)(F)C(F)(F)C(F)(F)F)nc6c(-c7ccccc7)cc(c4c56)=C4C=C(c5ccccc5)C(=N1)C2C34 (stereo not given)
- photoluminescence quantum yield (in C1CCOC1): 0.85

Compound: COc1ccc(-c2nc(N)nc(C#N)c2C#N)cc1OC
- photoluminescence quantum yield (in C1COCCO1): 0.0073
- photoluminescence quantum yield (in CC#N): 0.0893
- photoluminescence quantum yield (in CC(C)=O): 0.0272
- photoluminescence quantum yield (in CCO): 0.0105
- photoluminescence quantum yield (in CCOC(C)=O): 0.0185
- photoluminescence quantum yield (in CO): 0.0143

Compound: COC(=O)c1nc2cnc(N)nc2n1Cc1ccccc1
- photoluminescence quantum yield (in C1COCCO1): 0.64
- photoluminescence quantum yield (in CC#N): 0.55
- photoluminescence quantum yield (in CO): 0.87
- photoluminescence quantum yield (in ClCCl): 0.42
- photoluminescence quantum yield (in O): 0.95

Compound: COC(=O)C(Cc1ccc2oc(-c3ccc(-n4c5ccccc5c5ccccc54)cc3)nc2c1)NC(=O)OC(C)(C)C (stereo not given)
- photoluminescence quantum yield (in C1CCCCC1): 0.94
- photoluminescence quantum yield (in C1CCOC1): 0.53
- photoluminescence quantum yield (in C1COCCO1): 0.62
- photoluminescence quantum yield (in CC1CCCO1): 0.52
- photoluminescence quantum yield (in CC#N): 0.46
- photoluminescence quantum yield (in CC(C)(C)O): 0.81
- photoluminescence quantum yield (in CC(C)=O): 0.44
- photoluminescence quantum yield (in CC(C)CC(C)(C)C): 0.55
- photoluminescence quantum yield (in CC(C)O): 0.59
- photoluminescence quantum yield (in CC(O)CO): 0.55
- photoluminescence quantum yield (in CCCCCCCO): 0.65
- photoluminescence quantum yield (in CCCCCCO): 0.73
- photoluminescence quantum yield (in CCCCCO): 0.77
- photoluminescence quantum yield (in CCCCO): 0.69
- photoluminescence quantum yield (in CCO): 0.63
- photoluminescence quantum yield (in CCOC(C)=O): 0.54
- photoluminescence quantum yield (in CCOCC): 0.56
- photoluminescence quantum yield (in CN(C)C=O): 0.58
- photoluminescence quantum yield (in CO): 0.36
- photoluminescence quantum yield (in CS(C)=O): 0.47
- photoluminescence quantum yield (in Cc1ccccc1): 0.69
- photoluminescence quantum yield (in OCCO): 0.52

Compound: CC(C)CCCN1c2ccccc2CCc2ccccc21
- photoluminescence quantum yield (in CC#N): 0.029
- photoluminescence quantum yield (in CO): 0.021

Compound: c1ccc(-c2nc(-c3ccccc3)nc(-c3cccc(-n4c5ccccc5c5c6oc7ccccc7c6ccc54)c3)n2)cc1
- photoluminescence quantum yield [1]: 0.311

Compound: CC1(C)c2ccccc2N(c2ccc3c(ccc4nc5ccc6cc(N7c8ccccc8C(C)(C)c8ccccc87)ccc6c5nc43)c2)c2ccccc21
- photoluminescence quantum yield (in C1CCCCC1): 0.16
- photoluminescence quantum yield (in C1CCOC1): 0.07
- photoluminescence quantum yield (in Cc1ccccc1): 0.11
- photoluminescence quantum yield (in ClCCl): 0.05

Compound: F[B-]1(F)n2c(c(-c3ccccc3)c(-c3ccccc3)c2-c2ccccc2)C=C2C(c3ccccc3)=C(c3ccccc3)C(c3ccccc3)=[N+]21
- photoluminescence quantum yield (in C1CCOC1): 0.96

Compound: COc1cccc(OC)c1C1=C2C(C)=CC(C)=[N+]2[B-](F)(F)n2c(C)cc(C)c21
- photoluminescence quantum yield (in C1CCOC1): 0.64
- photoluminescence quantum yield (in CC#N): 0.54
- photoluminescence quantum yield (in CC(=O)C(C)(C)C): 0.64
- photoluminescence quantum yield (in CC(C)=O): 0.72
- photoluminescence quantum yield (in CCCCCC): 0.71
- photoluminescence quantum yield (in CCOC(C)=O): 0.47
- photoluminescence quantum yield (in CO): 0.58

Continued, values first:

- photoluminescence quantum yield (in ClCCl): 0.15
Compound: COc1ccc(/C=C/c2cc(/C=C/c3ccc(OC)cc3)nc(/C=C/c3ccc(OC)cc3)n2)cc1

- photoluminescence quantum yield (in ClC(Cl)Cl): 0.82
Compound: F[B-]1(F)n2c(ccc2-c2cccs2)C(c2ccc(Br)cc2)=C2C=CC(c3cccs3)=[N+]21

- photoluminescence quantum yield (in ClCCl): 0.25
Compound: Fc1ccc(C#Cc2c(C#Cc3ccc(F)cc3)c(C#Cc3ccc(F)cc3)c(C#Cc3ccc(F)cc3)c(C#Cc3ccc(F)cc3)c2C#Cc2ccc(F)cc2)cc1

- photoluminescence quantum yield (in C1COCCO1): 0
Compound: CCC1=C(C2=C(C3=C(CC)S(=O)(=O)c4ccccc43)C(F)(F)C(F)(F)C2(F)F)c2ccccc2S1(=O)=O

- photoluminescence quantum yield (in ClCCl): 0.28
Compound: Cc1ccc(-c2cccc3ncc(-c4ccccc4)n23)cc1

- photoluminescence quantum yield (in C1CCOC1): 0.13
Compound: c1cc2ccc1-c1ccc(cc1)-c1ccc([se]1)-c1ccc(cc1)-c1ccc(cc1)-c1ccc([se]1)-c1ccc(cc1)-c1ccc(cc1)-c1ccc([se]1)-c1ccc(cc1)-c1ccc(cc1)-c1ccc-2[se]1

- photoluminescence quantum yield (in C1CCOC1): 0.006
Compound: O=S1(=O)C(c2cccs2)=C(c2cccs2)c2ccccc21

- photoluminescence quantum yield (in C1CCCCC1): 0.23
- photoluminescence quantum yield (in C1CCOC1): 0.09
- photoluminescence quantum yield (in CC#N): 0.04
- photoluminescence quantum yield (in ClC(Cl)Cl): 0.1
- photoluminescence quantum yield (in c1ccccc1): 0.14
Compound: Cc1cc(C)c(B(c2c(C)cc(C)cc2C)c2cc3ccc4ccccc4c3c3c2cc(N(C)C)c2ccccc23)c(C)c1

- photoluminescence quantum yield (in c1ccccc1): 0.046
Compound: CCOC(=O)c1sc2nc3c(c(C#N)c2c1N)CCCC3

- photoluminescence quantum yield (in C1CCCCC1): 0.006
- photoluminescence quantum yield (in CO): 0.001
Compound: COc1ccc(/C=C/c2nc3ccccc3o2)cc1

- photoluminescence quantum yield (in CCO): 0.14
Compound: CNc1cc2nc3cc(Cl)c(Cl)cc3nc2cc1NC

- photoluminescence quantum yield (in ClCCl): 0.00075
Compound: CCOC(=O)C1=C(C(=O)OCC)C2(c3ccccc3-c3ccccc32)[C@@H](c2ccc([N+](=O)[O-])cc2)C=C2c3cc(OC)c(OC)cc3CCN21

- photoluminescence quantum yield (in ClCCl): 0.36
Compound: Cc1cc(C)c(C2=C3C=C(/C=C/C(=O)OCc4ccccc4)C=[N+]3[B-](F)(F)n3cccc32)c(C)c1

- photoluminescence quantum yield (in CO): 0.02
- photoluminescence quantum yield (in CS(C)=O): 0.056
- photoluminescence quantum yield (in ClC(Cl)Cl): 0.08
Compound: COc1cc2c3cc(OC)c(OC)cc3c3cc4c(C)cc(=O)oc4cc3c2cc1OC

- photoluminescence quantum yield (in C1CCOC1): 0.62
Compound: FC(F)(F)C(F)(F)C(F)(F)c1nc2c(-c3ccsc3)cc3c4cc(-c5ccsc5)c5nc(C(F)(F)C(F)(F)C(F)(F)F)nc6c(-c7ccsc7)cc(c7cc(-c8ccsc8)c(n1)c2c37)c4c56

- photoluminescence quantum yield (in ClCCl): 0.82
Compound: c1ccc2c(c1)OP1(=NP3(=NP(Oc4ccc5ccc6cccc7ccc4c5c67)(Oc4ccc5ccc6cccc7ccc4c5c67)=N1)Oc1ccccc1-c1ccccc1O3)Oc1ccccc1-2

- photoluminescence quantum yield (in ClCCl): 0.75
Compound: c1ccc(-c2c3ccccc3c(-c3ccc4ccccc4c3)c3ccccc23)nc1

- photoluminescence quantum yield (in ClCCl): 0.81
Compound: Nc1ccc2c(ccc3[n+]2[B-](F)(F)n2c-3cc3c4ccccc4c4ccccc4c32)c1

- photoluminescence quantum yield (in ClCCl): 0.06
Compound: CC(C)[Si](C#Cc1c2cc3ccccc3cc2c(C#Cc2ccc(C(F)(F)F)cc2)c2cc3ccccc3cc12)(C(C)C)C(C)C

- photoluminescence quantum yield (in ClCCl): 0.01
Compound: Brc1ccc(/C=C/c2ccncn2)cc1

- photoluminescence quantum yield (in ClCCl): 0.43
Compound: CCCCCc1ccc(C#Cc2cc(C#Cc3ccc(CCCCC)cc3)c3ccc4c(C(=O)c5ccccc5)cc(C#Cc5ccc(CCCCC)cc5)c5ccc2c3c54)cc1

- photoluminescence quantum yield (in CCO): 0.44
Compound: Cc1cc(C)c2cc3cc(C)ncc3cc2c1

- photoluminescence quantum yield (in ClC(Cl)Cl): 0.75
Compound: CCCCN1C(=O)c2cc(Oc3ccc(C(C)(C)C)cc3)c3c4c(Oc5ccc(C(C)(C)C)cc5)c(Oc5ccc(C(C)(C)C)cc5)c5c6c(cc(Oc7ccc(C(C)(C)C)cc7)c(c7c(Oc8ccc(C(C)(C)C)cc8)c(Oc8ccc(C(C)(C)C)cc8)c(c2c37)C1=O)c64)C(=O)N(CCCC)C5=O

- photoluminescence quantum yield (in CO): 0.29
Compound: COc1ccccc1-c1nc(-c2ccccc2)c(-c2ccccc2)[nH]1

- photoluminescence quantum yield (in ClC(Cl)Cl): 0.18
Compound: N#CC(C#N)=Cc1ccc(-c2ccc(N(c3ccccc3)c3ccccc3)cc2)s1

- photoluminescence quantum yield (in ClCCl): 0.156
Compound: Cc1c(C)c2c3ccccc3[nH]c2c2ccccc12

- photoluminescence quantum yield (in CCO): 0.073
Compound: Cc1nc2c(cc3c4c(cccc42)C(=O)OC3=O)o1
